# Assay results from paper PMC11137734, “Exploring Novel Antimalarial Compounds Targeting Plasmodium falciparum Enoyl-ACP Reductase: Computational and Experimental Insights” (ACS Omega, 2024).
# Key:
# [1] = target: T1, P. falciparum 2-trans-enoyl-ACP reductase (PfENR) (Plasmodium falciparum, UniProt C6KSZ2); assay: NADH consumption enzymatic assay ([…] nm) with crotonyl-CoA, purified recombinant PfENR; format: biochemical
# T1 construct: gene PF3D7_0615100; recombinant His-tagged PfENR (pGS-21a, E. coli BL21(DE3))
# T1 sequence (C6KSZ2 96-432): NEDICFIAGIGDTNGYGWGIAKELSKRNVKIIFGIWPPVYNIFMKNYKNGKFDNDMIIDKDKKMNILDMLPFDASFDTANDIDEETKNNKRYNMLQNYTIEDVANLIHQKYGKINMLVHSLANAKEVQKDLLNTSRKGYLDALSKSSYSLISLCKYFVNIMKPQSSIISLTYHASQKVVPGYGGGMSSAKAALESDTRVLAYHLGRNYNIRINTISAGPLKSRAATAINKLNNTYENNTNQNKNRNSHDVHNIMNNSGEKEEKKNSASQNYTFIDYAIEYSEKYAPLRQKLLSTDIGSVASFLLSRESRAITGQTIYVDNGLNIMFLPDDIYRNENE
# [2] = target: T1, P. falciparum 2-trans-enoyl-ACP reductase (PfENR); assay: NADH consumption enzymatic assay ([…] nm) with crotonyl-CoA, purified recombinant PfENR; positive control inhibitor; format: biochemical
SMILES,IC50 [1] [µM],IC50 [2] [µM]
"CCc1ccc(Oc2ccc(NS(=O)(=O)c3ccc4ccccc4c3)cc2)cc1 [LG2, N-[4-(4-ethylphenoxy)phenyl]naphthalene-2-sulfonamide]",3.95,–
"Oc1cc(Cl)ccc1Oc1ccc(Cl)cc1Cl [TCL, Triclosan]",–,3.58
